According to article PMC6476926, “Dichloro-Phenyl-Benzotriazoles: A New Selective Class of Human Respiratory Syncytial Virus Entry Inhibitors” (Frontiers in Chemistry, 2019):

Experiments:
[1] = tested on: Reo-1; assay: microbe, parasite or virus in culture; type: cell-based, Reovirus type-1 (Reo-1); conditions: Reovirus sp., BHK, read-out: EC50 Reo-1
[2] = tested on: YFV; assay: microbe, parasite or virus in culture; type: cell-based; conditions: Yellow fever virus, BHK, read-out: EC50 YFV
[3] = tested on: CV-B5; assay: microbe, parasite or virus in culture; type: cell-based, Human Enterovirus B [coxsackie type B5 (CV-B5)]; conditions: Enterovirus B, CVB5, Vero 76, read-out: EC50 CV-B5
[4] = tested on: BVDV; assay: microbe, parasite or virus in culture; type: cell-based; conditions: Bovine viral diarrhea virus isolates and strains, MDBK, read-out: EC50 BVDV
[5] = Cytotoxicity, MTT method, BHK cells; conditions: Syrian hamster (Mesocricetus auratus)
[6] = tested on: Sb-1, VSV, VV, HSV-1; assay: organism not typed; type: cell-based; conditions: Vero 76, read-out: EC50 Sb-1, VSV, VV, HSV-1
[7] = Cytotoxicity, MTT method, MT-4 cells; conditions: human
[8] = in vitro; conditions: cattle (Bos taurus)
[9] = tested on: RSV; assay: microbe, parasite or virus in culture; type: cell-based, Human Respiratory Syncytial Virus (RSV) strain A2; conditions: human respiratory syncytial virus, Vero 76, read-out: EC50 RSV
[10] = Cytotoxicity, MTT method, Vero-76 cells; conditions: African green monkey (Cercopithecus aethiops)
[11] = tested on: HIV-1IIIB; assay: microbe, parasite or virus in culture; type: cell-based, Human Immunodeficiency Virus type-1 (HIV-1); conditions: Human immunodeficiency virus 1, MT4, read-out: EC50 HIV-1IIIB

| Structure (SMILES) | EC50 [1] [µM] | EC50 [2] [µM] | EC50 [3] [µM] | EC50 [4] [µM] | CC50 [5] [µM] | EC50 [6] [µM] | melting point [°C] | CC50 [7] [µM] | CC50 [8] [µM] | EC50 [9] [µM] | CC50 at 5 days [10] [µM] | EC50 [11] [µM] | CC50 ([5]; BHK cells (BHK-21, mock-infected)) [µM] | CC50 ([7]; MT-4 cells (mock-infected)) [µM] | CC50 [10] [µM] |
| --- | --- | --- | --- | --- | --- | --- | --- | --- | --- | --- | --- | --- | --- | --- | --- |
| O=C(Nc1ccc(-n2nnc3cc(Cl)c(Cl)cc32)cc1)c1ccc([N+](=O)[O-])cc1 [7e, N-[4-(5,6-dichloro-1H-benzo[d][1,2,3]triazol-1-yl)phenyl]-4-nitrobenzamide] | > 96 | > 96 | > 100 | > 100 | 96 | > 100 | 238 to 240 | > 100 | > 100 | 13 | > 100 | > 100 |  |  |  |
| O=C(Nc1ccc(-n2nnc3cc(Cl)c(Cl)cc32)cc1)c1ccc(Cl)cc1 [7f, N-[4-(5,6-dichloro-1H-benzo[d][1,2,3]triazol-1-yl)phenyl] 4-chlorobenzamide] | > 84 | > 84 | > 100 | > 100 | 84 | > 100 | 234 to 236 | > 100 | > 100 | 8 | > 100 | > 100 |  |  |  |
| O=C(Nc1ccc(-n2nnc3cc(Cl)c(Cl)cc32)cc1)c1ccc(C(F)(F)F)cc1 [7g, N-[4-(5,6-dichloro-1H-benzo[d][1,2,3]triazol-1-yl)phenyl]-4-(trifluoromethyl)benzamide] | > 100 | > 100 | > 90 | > 100 | > 100 | > 90 | > 290 | > 100 | > 100 | 5 | 9 | > 100 |  |  |  |
| N#Cc1ccc(C(=O)Nc2ccc(-n3nnc4cc(Cl)c(Cl)cc43)cc2)cc1 [7h, N-[4-(5,6-dichloro-1H-benzo[d][1,2,3]triazol-1-yl)phenyl] 4-cyanobenzamide] | > 100 | > 100 | > 100 | > 100 | > 100 | > 100 | 227 to 229 | > 100 | > 100 | 11 | > 100 | > 100 |  |  |  |
| O=C(Nc1ccc(-n2nc3cc(Cl)c(Cl)cc3n2)cc1)c1ccccc1 [8a, N-[4-(5,6-dichloro-2H-benzo[d][1,2,3]triazol-2-yl)phenyl]benzamide] | > 100 | > 100 | > 100 | > 100 | > 100 | > 100 | > 290 | > 100 | > 100 | > 100 | > 100 | > 100 |  |  |  |
| Cc1ccc(C(=O)Nc2ccc(-n3nc4cc(Cl)c(Cl)cc4n3)cc2)cc1 [8b, N-[4-(5,6-dichloro-2H-benzo[d][1,2,3]triazol-2-yl)phenyl]-4-methylbenzamide] | > 100 | 73 | > 100 | > 100 | > 100 | > 100 | 210 to 213 | > 100 | > 100 | 27 | > 100 | > 100 |  |  |  |
| COc1ccc(C(=O)Nc2ccc(-n3nc4cc(Cl)c(Cl)cc4n3)cc2)cc1 [8c, N-[4-(5,6-dichloro-2H-benzo[d][1,2,3]triazol-2-yl)phenyl]-4-methoxybenzamide] | > 100 | > 100 | 14 | > 100 |  | > 100 | 274 to 276 |  | > 100 | > 100 | > 100 | > 100 | > 100 | > 100 |  |
| O=C(Nc1ccc(-n2nc3cc(Cl)c(Cl)cc3n2)cc1)c1ccc([N+](=O)[O-])cc1 [8e, N-[4-(5,6-dichloro-2H-benzo[d][1,2,3]triazol-2-yl)phenyl]-4-nitrobenzamide] | > 68 | > 68 | > 100 | 4 | 68 | > 100 | > 297 | > 100 | > 100 | 33 | > 100 | > 100 |  |  |  |
| O=C(Nc1ccc(-n2nc3cc(Cl)c(Cl)cc3n2)cc1)c1ccc(Cl)cc1 [8f, N-[4-(5,6-dichloro-2H-benzo[d][1,2,3]triazol-2-yl)PHENYL] 4-chlorobenzamide] | > 100 | > 100 | > 100 | 60 | > 100 | > 100 | 268 to 270 | > 100 | > 100 | 20 | 80 | > 100 |  |  |  |
| O=C(Nc1ccc(-n2nc3cc(Cl)c(Cl)cc3n2)cc1)c1ccc(C(F)(F)F)cc1 [8g, N-[4-(5,6-dichloro-2H-benzo[d][1,2,3]triazol-2-yl)phenyl]-4-(trifluoromethyl)benzamide] | > 100 | > 100 | > 100 | 28 | > 100 | > 100 | 210 to 212 | > 100 | > 100 | 50 | > 100 | > 100 |  |  |  |
| N#Cc1ccc(C(=O)Nc2ccc(-n3nc4cc(Cl)c(Cl)cc4n3)cc2)cc1 [8h, N-[4-(5,6-dichloro-2H-benzo[d][1,2,3]triazol-2-yl)phenyl] 4-cyanobenzamide] | > 100 | > 100 | > 100 | 11 | > 100 | > 100 | 263 to 265 | > 100 | > 100 | 60 | > 100 | > 100 |  |  |  |
| CCNC(=O)Nc1ccc(-n2nc3cc(Cl)c(Cl)cc3n2)cc1 [10a, 1-[4-(5,6-dichloro-2H-benzo[d][1,2,3]triazol-2-yl)phenyl]-3-ethylurea] | > 100 | > 100 | > 100 | > 100 | > 100 | > 100 | > 290 | > 100 | > 100 | > 100 | > 100 | > 100 |  |  |  |
| CCCCNC(=O)Nc1ccc(-n2nc3cc(Cl)c(Cl)cc3n2)cc1 [10c, 1-[4-(5,6-dichloro-2H-benzo[d][1,2,3]triazol-2-yl)phenyl]-3-butylurea] | > 100 | > 100 | > 95 | > 100 | > 100 | > 95 | > 300 | > 100 | > 100 | > 100 | > 100 | > 100 |  |  | 90 |
| O=C(Nc1ccccc1)Nc1ccc(-n2nc3cc(Cl)c(Cl)cc3n2)cc1 [10e, 1-[4-(5,6-dichloro-2H-benzo[d][1,2,3]triazol-2-yl)phenyl]-3-phenylurea] | > 100 | > 100 | > 100 | > 100 | > 100 | > 100 | > 290 | > 100 | > 100 | > 100 | > 100 | > 100 |  |  |  |
| COc1ccc(NC(=O)Nc2ccc(-n3nc4cc(Cl)c(Cl)cc4n3)cc2)cc1 [10g, 1-[4-(5,6-dichloro-2H-benzo[d][1,2,3]triazol-2-yl)phenyl]-3-(4-methoxyphenyl)urea] | > 100 | > 100 | > 100 | > 100 | > 100 | > 100 | > 290 | > 100 | > 100 | > 100 | > 100 | > 100 |  |  |  |
| O=C(Nc1ccc(Cl)cc1)Nc1ccc(-n2nc3cc(Cl)c(Cl)cc3n2)cc1 [10h, 1-[4-(5,6-dichloro-2H-benzo[d][1,2,3]triazol-2-yl)phenyl]-3-(4-chlorophenyl)urea] | > 100 | > 100 | > 100 | > 100 | > 100 | > 100 | > 290 | > 100 | > 100 | > 100 | > 100 | > 100 |  |  |  |
| O=C(Nc1ccc(F)cc1)Nc1ccc(-n2nc3cc(Cl)c(Cl)cc3n2)cc1 [10i, 1-[4-(5,6-dichloro-2H-benzo[d][1,2,3]triazol-2-yl)phenyl]-3-(4-fluorophenyl)urea] | > 100 | > 100 | > 100 | > 100 | > 100 | > 100 | > 290 | > 100 | > 100 | > 100 | > 100 | > 100 |  |  |  |
